Results reported in patent US4414224A (SmithKline Beckman Corporation, priority 1982, dated 1983).

Key:
alpha1 = experiment: Isolated perfused rabbit ear artery preparation, vasoconstriction indicative of alpha1 activity; assay type: cell-based
Description: The isolated perfused rabbit ear artery preparation described by J. P. Hiebel and R. G. Pendleton, Arch.

normal anesthetized dog = experiment: Intravenous infusion in the normal anesthetized dog (MAP, RBF, RVR, HR); assay type: in vivo; details: i.v. infusion
[1] = 0.3 μg/kg/min (base), A in 10% dimethylsulfoxide in 0.9% saline
[2] = 3 μg/kg/min (base), dopamine run in each test for comparison

| SMILES | concentration at which vasoconstriction indicative of alpha1 activity was observed (alpha1) | % Change HR (heart rate) (normal anesthetized dog; [1]) | % Change MAP (mean arterial blood pressure) (normal anesthetized dog; [1]) | % Change RBF (mean renal blood flow) (normal anesthetized dog; [1]) | % Change RVR (renal vascular resistance) (normal anesthetized dog; [1]) | % Change HR (heart rate) (normal anesthetized dog; [2]) | % Change MAP (mean arterial blood pressure) (normal anesthetized dog; [2]) | % Change RBF (mean renal blood flow) (normal anesthetized dog; [2]) | % Change RVR (renal vascular resistance) (normal anesthetized dog; [2]) | % Change HR (heart rate) (normal anesthetized dog; 30 μg/kg/min (base)) | % Change MAP (mean arterial blood pressure) (normal anesthetized dog; 30 μg/kg/min (base)) | % Change RBF (mean renal blood flow) (normal anesthetized dog; 30 μg/kg/min (base)) | % Change RVR (renal vascular resistance) (normal anesthetized dog; 30 μg/kg/min (base)) | % Change HR (heart rate) (normal anesthetized dog; 300 μg/kg/min (base)) | % Change MAP (mean arterial blood pressure) (normal anesthetized dog; 300 μg/kg/min (base)) | % Change RBF (mean renal blood flow) (normal anesthetized dog; 300 μg/kg/min (base)) | % Change RVR (renal vascular resistance) (normal anesthetized dog; 300 μg/kg/min (base)) |
| --- | --- | --- | --- | --- | --- | --- | --- | --- | --- | --- | --- | --- | --- | --- | --- | --- | --- |
| CCCN(CCC)CCc1ccc(O)c2c1CC(=O)N2 [4-(2-di-n-propylaminoethyl)-7-hydroxy-2(3H)-indolone] | about 1000 nM |  |  |  |  |  |  |  |  |  |  |  |  |  |  |  |  |
| Br.CCCN(CCC)CCc1ccc(O)c2c1CC(=O)N2 [A, 4-(2-di-n-propylaminoethyl)-7-hydroxy-2(3H)-indolone hydrobromide] |  | +3.6% | -5.1% | +4.6% | -0.5% | -11.2% | -24.7% | +24.7% | -39.1% | -6.9% | +28.4% | -19.4% | +59.2% |  |  |  |  |
| CCCN(CCC)CCc1ccc(OC)c2c1CC(=O)N2.Cl [B, 4-(2-di-n-propylaminoethyl)-7-methoxy-2(3H)-indolone hydrochloride] |  |  |  |  |  | -4.5% | -3.6% | -11.6% | +8.9% | -8.3% | -7.8% | +2.8% | -9.5% | -7.8% | +0.1% | +0.7% | +1.6% |
| Br.NCCc1ccc(O)c2c1CC(=O)N2 [C, 4-(2-aminoethyl)-7-hydroxy-2(3H)-indolone hydrobromide] |  |  |  |  |  | -2.9% | -10.6% | -12.7% | +4.1% | -2.9% | -16.1% | -12.3% | -2.7% | -15.8% | +62.6% | -32.7% | +167.0% |
| COc1ccc(CCN)c2c1NC(=O)C2.Cl [D, 4-(2-aminoethyl)-7-methoxy-2(3H)-indolone hydrochloride] |  |  |  |  |  | -1.5% | -0.7% | +6.7% | -7.0% | -2.8% | -2.3% | +7.5% | -9.2% | -1.6% | -9.8% | +2.1% | -9.4% |
